The values below come from patent publication US9079866B2, “Flap modulators” (JANSSEN PHARMACEUTICA NV, priority 2013, dated 2015).

Assay [1] concerns leukotriene pathway in human whole blood (LTB4 levels). Kind of assay: Human whole blood assay (A23187-stimulated LTB4). The assay is classed as cell-based. Conditions: Homo sapiens, human whole blood diluted 1:1, A23187-stimulated; read-out: LTB4 IC50 1:1. In short, it runs like this: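 Single-replicate data from at least one healthy donor: compound pre-incubated 15 min at 37° Celsius in 1:1 RPMI-diluted heparinised blood, followed by 30 min calcium ionophore A23187 (7 μg/mL) challenge at 37° Celsius. LTB4 in plasma quantified by kit; IC50 via 4-parameter equation.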

The next assay has as its target human FLAP (Homo sapiens (Human), UniProt P20292). The assay can be described thus: FLAP binding assay (HTRF format). Put shortly: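 Binding of compounds to FLAP read out as HTRF ratio. Values are the mean of two assay plates, each sample run in duplicate per plate.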
Background: Time-resolved FRET reads energy transfer from a long-lived donor to a nearby acceptor.

Molecules are shown by their SMILES. Counter-ions that a name gives are not always drawn. Like-named read-outs stand apart in the source and are kept apart here.

Chain of human FLAP (P20292 whole entry): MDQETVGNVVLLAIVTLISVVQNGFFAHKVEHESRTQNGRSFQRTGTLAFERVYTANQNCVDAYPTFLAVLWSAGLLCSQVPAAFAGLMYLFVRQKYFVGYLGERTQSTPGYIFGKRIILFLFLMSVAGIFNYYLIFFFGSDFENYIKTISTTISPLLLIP

With `CC(C)(C)NS(=O)(=O)c1ccccc1-c1ccc(-c2cnc(N)c(Cl)c2)c(F)c1` [Example 451, 4′-(6-Amino-5-chloropyridin-3-yl)-N-tert-butyl-3′-fluorobiphenyl-2-sulfonamide trifluoroacetic acid salt], the IC50 (commonly the concentration at which inhibition is half-maximal) in assay [1] was 38 nM. Further, the Ki (in general, the equilibrium dissociation constant of an inhibitor or competing ligand from its target) on human FLAP (wild type FLAP, HTRF format) turned out to be 2 nM.

Regarding `CC(C)(C)NS(=O)(=O)c1ccccc1-c1ccc(-c2cnc(N)c(C(F)(F)F)c2)c(F)c1` [Example 452, 4′-[6-Amino-5-(trifluoromethyl)pyridin-3-yl]-N-tert-butyl-3′-fluorobiphenyl-2-sulfonamide trifluoroacetic acid salt], the IC50 in assay [1] was 1950 nM. Moreover, on human FLAP (read-out: FLAP Binding wild type HTRF Ki), the inhibitory constant (Ki) was 81 nM.

With `CC(C)(C)NS(=O)(=O)c1ccccc1-c1ccc(-c2cnc(N)nc2C(F)(F)F)c(F)c1` [Example 453, 4′-[2-Amino-4-(trifluoromethyl)pyrimidin-5-yl]-N-tert-butyl-3′-fluorobiphenyl-2-sulfonamide trifluoroacetic acid salt], the 50% inhibitory concentration (IC50) in assay [1] is over 10000 nM. At human FLAP (wild type FLAP, HTRF format), this molecule had a Ki of over 10000 nM.

Regarding `Cc1nc(N)ncc1-c1ccc(-c2ccccc2S(=O)(=O)NC(C)(C)C)cc1F` [Example 454, 4-′-(2-Amino-4-methylpyrimidin-5-yl)-N-tert-butyl-3′-fluorobiphenyl-2-sulfonamide trifluoroacetic acid salt], the 50% inhibitory concentration (IC50) in assay [1] was 345 nM. In addition, the inhibition constant Ki on human FLAP (wild type FLAP, HTRF format) amounted to 12 nM.

In the case of `CC(C)(C)NS(=O)(=O)c1ccccc1-c1ccc(-c2cnc3[nH]cc(CO)c3c2)c(F)c1` [Example 455, N-tert-Butyl-3′-fluoro-4′-[3-(hydroxymethyl)-1H-pyrrolo[2,3-b]pyridin-5-yl]biphenyl-2-sulfonamide], the IC50 in assay [1] amounted to 94 nM. Also, the inhibition constant Ki on human FLAP (wild type FLAP, HTRF format) was found to be 1 nM.

Regarding `Nc1cc(-c2ccc(-c3ccccc3S(=O)(=O)NC3(CO)CCCC3)cc2F)cc2cc[nH]c12` [Example 456, 4′-(7-Amino-1H-indol-5-yl)-3′-fluoro-N-[1-(hydroxymethyl)cyclopentyl]biphenyl-2-sulfonamide], in assay [1], the IC50 was found to be 114 nM. Besides, at human FLAP (wild type FLAP, HTRF format), the Ki is 3 nM.

With `CNS(=O)(=O)c1ccccc1-c1ccc(-c2cnc3[nH]cc(CO)c3c2)c(F)c1` [Example 457, 3′-Fluoro-4′-[3-(hydroxymethyl)-1H-pyrrolo[2,3-b]pyridin-5-yl]-N-methylbiphenyl-2-sulfonamide], the half-inhibitory concentration (IC50) in assay [1] was 140 nM. For the same molecule, the Ki at human FLAP (wild type FLAP, HTRF format) stood at 3 nM.

For `CS(=O)(=O)c1ccccc1-c1ccc(-c2cnc(N)cn2)c(F)c1F` [Example 461, 5-[2,3-Difluoro-2′-(methylsulfonyl)biphenyl-4-yl]pyrazin-2-amine], in assay [1], the concentration for half-maximal inhibition (IC50) was found to be 209 nM. This molecule registered an inhibitory constant (Ki) on human FLAP (wild type FLAP, HTRF format) of 41 nM.

`CC(C)(C)NS(=O)(=O)c1ccccc1-c1ccc(-c2cnc(N)cn2)c(F)c1F` [Example 462, 4′-(5-Aminopyrazin-2-yl)-N-tert-butyl-2′,3′-difluorobiphenyl-2-sulfonamide]: in assay [1], the half-maximal inhibitory concentration (IC50) came out at 62 nM. On human FLAP (wild type FLAP, HTRF format), the Ki turned out to be 2 nM.

Consider `CNS(=O)(=O)c1ccccc1-c1ccc(-c2cnc(N)nc2)c(F)c1F` [Example 465, 4′-(2-Aminopyrimidin-5-yl)-2′,3′-difluoro-N-methylbiphenyl-2-sulfonamide trifluoroacetic acid salt], for which, in assay [1], the IC50 amounted to 957 nM. Besides, the Ki at human FLAP (wild type FLAP, HTRF format) was 186 nM.

Turning to `Nc1cnc(-c2ccc(-c3ccc(OC(F)(F)F)cc3F)cc2F)cn1` [Example 467, 5-[2′,3-Difluoro-4′-(trifluoromethoxy)biphenyl-4-yl]pyrazin-2-amine], in assay [1], the half-maximal inhibitory concentration (IC50) was found to be 2830 nM. The inhibitory constant (Ki) on human FLAP (wild type FLAP, HTRF format) was 250 nM.

For `Nc1cnc(-c2ccc(-c3ccccc3Cl)cc2F)cn1` [Example 469, 5-(2′-Chloro-3-fluorobiphenyl-4-yl)pyrazin-2-amine], in assay [1], the 50% inhibitory concentration (IC50) turned out to be 2350 nM. In addition, the Ki on human FLAP (wild type FLAP, HTRF format) stood at 250 nM.

As for `Nc1cnc(-c2ccc(-c3ccc(C(F)(F)F)cc3F)cc2F)cn1` [Example 471, 5-[2′,3-Difluoro-4′-(trifluoromethyl)biphenyl-4-yl]pyrazin-2-amine], the IC50 in assay [1] came to 3400 nM. At human FLAP (wild type FLAP, HTRF format), this molecule displayed a Ki of 250 nM.

As for `Nc1cnc(-c2ccc(-c3ccccc3C(F)(F)F)cc2F)cn1` [Example 472, 5-[3-Fluoro-2′-(trifluoromethyl)biphenyl-4-yl]pyrazin-2-amine], in assay [1], the IC50 was determined as 2520 nM. In addition, on human FLAP (wild type FLAP, HTRF format), the Ki is 145 nM.

For `COc1ccccc1-c1ccc(-c2cnc(N)cn2)c(F)c1` [Example 473, 5-(3-Fluoro-2′-methoxybiphenyl-4-yl)pyrazin-2-amine], the 50% inhibitory concentration (IC50) in assay [1] came out at 1410 nM. On human FLAP (wild type FLAP, HTRF format), this molecule showed a Ki of 113 nM.

`CSc1ccccc1-c1ccc(-c2cnc(N)cn2)c(F)c1` [Example 474, 5-[3-Fluoro-2′-(methylsulfanyl)biphenyl-4-yl]pyrazin-2-amine]: the IC50 in assay [1] came out at 2650 nM. This molecule gave a Ki at human FLAP (wild type FLAP, HTRF format) of 21 nM.

Regarding `Nc1cnc(-c2ccc(-c3ccccc3O)cc2F)cn1` [Example 476, 4′-(5-Aminopyrazin-2-yl)-3′-fluorobiphenyl-2-ol], in assay [1], the IC50 is 891 nM. The molecule further showed an inhibition constant (Ki) at human FLAP (wild type FLAP, HTRF format) of 32 nM.

Regarding `Nc1cnc(-c2ccc(-c3ccccc3S(=O)(=O)c3ccccc3)cc2F)cn1` [Example 477, 5-[3-Fluoro-2′-(phenylsulfonyl)biphenyl-4-yl]pyrazin-2-amine], the IC50 in assay [1] is 738 nM. Besides, at human FLAP (wild type FLAP, HTRF format), the inhibitory constant (Ki) worked out at 16 nM.

As to `Nc1cnc(-c2ccc(-c3ccccc3NS(=O)(=O)c3ccccc3)cc2F)cn1` [Example 479, N-[4′-(5-Aminopyrazin-2-yl)-3′-fluorobiphenyl-2-yl]benzenesulfonamide], in assay [1], the IC50 was 571 nM. This molecule showed a Ki at human FLAP (wild type FLAP, HTRF format) of 6 nM.

Take `Nc1cnc(-c2ccc(-c3ccccc3OCC(F)(F)F)cc2F)cn1` [Example 484, 5-[3-Fluoro-2′-(2,2,2-trifluoroethoxy)biphenyl-4-yl]pyrazin-2-amine]: in assay [1], the IC50 was found to be 3460 nM. In addition, the affinity at human FLAP (wild type FLAP, HTRF format), expressed as Ki, was 78 nM.

Consider `CC(C)Oc1ccccc1-c1ccc(-c2cnc(N)cn2)c(F)c1` [Example 487, 5-[3-Fluoro-2′-(1-methylethoxy)biphenyl-4-yl]pyrazin-2-amine], for which, in assay [1], the half-inhibitory concentration (IC50) worked out at 444 nM. The molecule also had an inhibitory constant (Ki) at human FLAP (wild type FLAP, HTRF format) of 54 nM.

With `Nc1cnc(-c2ccc(-c3cccnc3OCC3CC3)cc2F)cn1` [Example 488, 5-{4-[2-(Cyclopropylmethoxy)pyridin-3-yl]-2-fluorophenyl}pyrazin-2-amine], in assay [1], the 50% inhibitory concentration (IC50) came out at 1650 nM. The molecule also came in with an inhibition constant Ki at human FLAP (wild type FLAP, HTRF format) of 97 nM.

On to `CN(c1ccccc1-c1ccc(-c2cnc(N)cn2)c(F)c1)S(C)(=O)=O` [Example 490, N-[4′-(5-Aminopyrazin-2-yl)-3′-fluorobiphenyl-2-yl]-N-methylmethanesulfonmide], for which the IC50 in assay [1] stood at 269 nM. At human FLAP (wild type FLAP, HTRF format), this molecule returned a Ki of 354 nM.

On to `CCS(=O)(=O)Nc1ccccc1-c1ccc(-c2cnc3[nH]ccc3n2)c(F)c1` [Example 491, N-[3′-Fluoro-4′-(5H-pyrrolo[2,3-b]pyrazin-2-yl)biphenyl-2-yl]ethanesulfonamide], for which the IC50 in assay [1] turned out to be 215 nM. The same molecule displayed an inhibition constant (Ki) at human FLAP (wild type FLAP, HTRF format) of 15 nM.

Turning to `CN(c1ccccc1-c1ccc(-c2cnc3[nH]ccc3n2)c(F)c1)S(C)(=O)=O` [Example 492, N-[3′-Fluoro-4′-(5H-pyrrolo[2,3-b]pyrazin-2-yl)biphenyl-2-yl]-N-methylmethanesulfonamide], in assay [1], the IC50 is 155 nM. Also, on human FLAP (wild type FLAP, HTRF format), the affinity, expressed as Ki, was 15 nM.

Regarding `CCS(=O)(=O)N(C)c1ccccc1-c1ccc(-c2cnc3[nH]ccc3n2)c(F)c1` [Example 493, N-[3′-Fluoro-4′-(5H-pyrrolo[2,3-b]pyrazin-2-yl)biphenyl-2-yl]-N-methylethanesulfonamide], the IC50 in assay [1] came out at 303 nM. The molecule further yielded an inhibition constant Ki at human FLAP (wild type FLAP, HTRF format) of 7 nM.

As for `CCS(=O)(=O)N(C)c1ccccc1-c1ccc(-c2cnc(N)cn2)c(F)c1` [Example 494, N-[4′-(5-Aminopyrazin-2-yl)-3′-fluorobiphenyl-2-yl]-N-methylethanesulfonamide], the IC50 in assay [1] amounted to 99 nM. Further, the affinity on human FLAP (wild type FLAP, HTRF format), expressed as Ki, was 32 nM.

In the case of `CC(C)CS(=O)(=O)Nc1ccccc1-c1ccc(-c2cnc3[nH]ccc3n2)c(F)c1` [Example 495, N-[3′-Fluoro-4′-(5H-pyrrolo[2,3-b]pyrazin-2-yl)biphenyl-2-yl]-2-methylpropane-1-sulfonamide], the IC50 in assay [1] was 509 nM. The molecule also registered an inhibition constant (Ki) at human FLAP (wild type FLAP, HTRF format) of 4 nM.

Regarding `CCN(c1ccccc1-c1ccc(-c2cnc(N)cn2)c(F)c1)S(C)(=O)=O` [Example 496, N-[4′-(5-Aminopyrazin-2-yl)-3′-fluorobiphenyl-2-yl]-N-ethylmethanesulfonamide], the 50% inhibitory concentration (IC50) in assay [1] came out at 165 nM. In addition, at human FLAP (wild type FLAP, HTRF format), the Ki is 19 nM.

For `CC(C)CS(=O)(=O)N(C)c1ccccc1-c1ccc(-c2cnc(N)cn2)c(F)c1` [Example 497, N-[4′-(5-Aminopyrazin-2-yl)-3′-fluorobiphenyl-2-yl]-N,2-dimethylpropane-1-sulfonamide], in assay [1], the concentration for half-maximal inhibition (IC50) was 510 nM. This molecule also yielded an inhibition constant Ki on human FLAP (wild type FLAP, HTRF format) of 25 nM.

Consider `O=C(c1ccccc1-c1ccc(-c2cnc3[nH]ccc3c2)c(F)c1)N1CCOCC1` [Example 498, 5-[3-Fluoro-2′-(morpholin-4-ylcarbonyl)biphenyl-4-yl]-1H-pyrrolo[2,3-b]pyridine], for which, in assay [1], the 50% inhibitory concentration (IC50) was 111 nM. Besides, affinity on human FLAP (wild type FLAP, HTRF format) was put at a Ki of 16 nM.

Turning to `O=C(c1ccccc1-c1ccc(-c2cnc3[nH]ccc3n2)c(F)c1)N1CCOCC1` [Example 500, 2-[3-Fluoro-2′-(morpholin-4-ylcarbonyl)biphenyl-4-yl]-5H-pyrrolo[2,3-b]pyrazine], the IC50 in assay [1] turned out to be 139 nM. The molecule also yielded an inhibition constant Ki on human FLAP (wild type FLAP, HTRF format) of 48 nM.

Regarding `CC(C)(C)NC(=O)c1cc(F)ccc1-c1ccc(-c2cnc(N)cn2)c(F)c1` [Example 502, 4′-(5-Aminopyrazin-2-yl)-N-tert-butyl-3′,4-difluorobiphenyl-2-carboxamide], in assay [1], the IC50 turned out to be 363 nM. Besides, at human FLAP (wild type FLAP, HTRF format), the affinity corresponds to a Ki of 83 nM.
